Measured values as given in patent publication US6274715A, “Tricyclic erythromycin derivatives” (priority 1997, dated 2001).
≈ marks a conversion by molar mass, not a printed value.

How the values were obtained:
Format in all cases: cell-based
[1] = system: STREPTOCOCCUS BOVIS A-5169; assay: In vitro antibacterial activity, MIC, BHI agar dilution; details: S. bovis A-5169, unit assumed
CANDIDA ALBICANS CCH 442 = assay: as above; details: C. albicans CCH 442, unit assumed
[2] = system: PSEUDOMONAS AERUGINOSA 5007; assay: as above; details: P. aeruginosa 5007, unit assumed
M[…] ATCC 9341 = assay: as above; details: M. luteus ATCC 9341, unit assumed
Procedure, shortened: (§1)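 MIC was read visually as the lowest drug level with no growth, a slight haze or sparsely isolated colonies relative to a compound-free growth control. Organisms were spotted at 1:100 dilution (1:10 for slow-growing strains) onto Brain Heart Infusion agar containing serial compound dilutions and incubated 20 to 24 hours at 35-37° C.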

EN[…] ATCC 8043 = assay: as above; details: E. faecium ATCC 8043, unit assumed
Procedure, shortened: as §1

STR[…] 508 = assay: as above; details: S. agalactiae CMX 508, unit assumed
Procedure, shortened: as §1

M[…] ATCC 4698 = assay: as above; details: M. luteus ATCC 4698, unit assumed
Procedure, shortened: as §1

[3] = system: MYCOBACTERIUM SMEGMATIS ATCC 114; assay: as above; details: M. smegmatis ATCC 114, unit assumed
[4] = system: STAPHYLOCOCCUS EPIDERMIDIS 3519; details: S. epidermidis 3519; BHI agar; unit assumed
ESCHERICHIA COLI SS = assay: In vitro antibacterial activity, MIC, BHI agar dilution; details: E. coli SS, unit assumed
ESCHERICHIA COLI DC-2 = assay: as above; details: E. coli DC-2, unit assumed
[5] = system: PSEUDOMONAS AERUGINOSA DPHD-5263; assay: as above; details: P. aeruginosa DPHD-5263, unit assumed
[6] = system: STAPHYLOCOCCUS AUREUS CMX 642A; assay: as above; details: S. aureus CMX 642A, unit assumed
[7] = system: PROVIDENCIA STUARTII CMX 640; details: P. stuartii CMX 640; BHI agar; unit assumed
[8] = system: STREPTOCOCCUS PYOGENES EES61; assay: In vitro antibacterial activity, MIC, BHI agar dilution; details: S. pyogenes EES61, unit assumed
ESCHERICHIA COLI H560 = assay: as above; details: E. coli H560, unit assumed
ESCHERICHIA COLI KNK 437 = details: E. coli KNK 437; BHI agar; unit assumed
[9] = system: ENTEROBACTER AEROGENES ATCC 13048; assay: In vitro antibacterial activity, MIC, BHI agar dilution; details: E. aerogenes ATCC 13048, unit assumed
[10] = system: STAPHYLOCOCCUS AUREUS A-5278; assay: as above; details: S. aureus A-5278, unit assumed
[11] = system: STAPHYLOCOCCUS AUREUS NCTC10649M; assay: as above; details: S. aureus NCTC10649M, unit assumed
[12] = system: STREPTOCOCCUS PYOGENES 930; assay: as above; details: S. pyogenes 930, unit assumed
[13] = system: STAPHYLOCOCCUS AUREUS ATCC 6538P; assay: as above; details: S. aureus ATCC 6538P, 35-37° C., 20 to 24 hours, unit assumed
[14] = system: STAPHYLOCOCCUS AUREUS A5177; assay: as above; details: S. aureus A5177, unit assumed
[15] = system: STAPHYLOCOCCUS AUREUS CMX 553; assay: as above; details: S. aureus CMX 553, unit assumed
[16] = system: PSEUDOMONAS AERUGINOSA K799/61; assay: as above; details: P. aeruginosa K799/61, unit assumed
[17] = system: STREPTOCOCCUS PYOGENES PIU 2548; assay: as above; details: S. pyogenes PIU 2548, unit assumed
[18] = system: PSEUDOMONAS AERUGINOSA BMH10; assay: as above; details: P. aeruginosa BMH10, unit assumed
[19] = system: PSEUDOMONAS AERUGINOSA K799/WT; assay: as above; details: P. aeruginosa K799/WT, unit assumed
[20] = system: ACINETOBACTER CALCOACETICUS CMX 669; assay: as above; details: A. calcoaceticus CMX 669, unit assumed
PSEUDOMONAS CEPACIA 296I = assay: as above; details: P. cepacia 296I, unit assumed
[21] = system: PSEUDOMONAS AERUGINOSA DPHD-2862; assay: as above; details: P. aeruginosa DPHD-2862, unit assumed
[22] = system: STAPHYLOCOCCUS AUREUS 1775; assay: as above; details: S. aureus 1775, unit assumed
[23] = system: KLEBSIELLA PNEUMONIAE ATCC 8045; assay: as above; details: K. pneumoniae ATCC 8045, unit assumed
ESCHERICHIA COLI JUHL = details: E. coli JUHL; BHI agar; unit assumed

Structure (SMILES)	MIC [1]	MIC (CANDIDA ALBICANS CCH 442)	MIC [2]	MIC (M[…] ATCC 9341)	MIC (EN[…] ATCC 8043)	MIC (STR[…] 508)	MIC (M[…] ATCC 4698)	MIC [3]	MIC [4]	MIC (ESCHERICHIA COLI SS)	MIC (ESCHERICHIA COLI DC-2)	MIC [5]	MIC [6]	MIC [7]	MIC [8]	MIC (ESCHERICHIA COLI H560)	MIC (ESCHERICHIA COLI KNK 437)	MIC [9]	MIC [10]	MIC [11]	also measured
CC[C@H]1OC(=O)[C@H](C)C(=O)[C@H](C)[C@@H](O[C@@H]2O[C@H](C)C[C@H](N(C)C)[C@H]2O)[C@](C)(OC)C[C@@H](C)C2=NC[C@H](Cc3ccc(NC(=O)OCc4ccccc4)cc3)N3C(=O)O[C@@]1(C)[C@H]3[C@H]2C [Example 68]	0.05 µg/mL (≈ 0.057 µM)	> 100 µg/mL	> 100 µg/mL	0.1 µg/mL (≈ 0.114 µM)	0.2 µg/mL (≈ 0.228 µM)	0.05 µg/mL (≈ 0.057 µM)	0.39 µg/mL (≈ 0.445 µM)	3.1 µg/mL (≈ 3.53 µM)	0.39 µg/mL (≈ 0.445 µM)	1.56 µg/mL (≈ 1.78 µM)	100 µg/mL (≈ 114 µM)	> 100 µg/mL	0.2 µg/mL (≈ 0.228 µM)	> 100 µg/mL	0.1 µg/mL (≈ 0.114 µM)	50 µg/mL (≈ 57 µM)	> 100 µg/mL	> 100 µg/mL	> 100 µg/mL	0.2 µg/mL (≈ 0.228 µM)	MIC [12]: 50 µg/mL (≈ 57 µM); MIC [13]: 0.2 µg/mL (≈ 0.228 µM); MIC [14]: 0.2 µg/mL (≈ 0.228 µM); MIC [15]: 0.2 µg/mL (≈ 0.228 µM); MIC [16]: 3.1 µg/mL (≈ 3.53 µM); MIC [17]: 0.78 µg/mL (≈ 0.889 µM); MIC [18]: > 100 µg/mL; MIC [19]: > 100 µg/mL; MIC [20]: 100 µg/mL (≈ 114 µM); MIC (PSEUDOMONAS CEPACIA 296I): > 100 µg/mL; MIC [21]: > 100 µg/mL; MIC [22]: > 100 µg/mL; MIC [23]: > 100 µg/mL
CC[C@H]1OC(=O)[C@H](C)C(=O)[C@H](C)[C@@H](O[C@@H]2O[C@H](C)C[C@H](N(C)C)[C@H]2O)[C@](C)(OC)C[C@@H](C)C2=NC[C@H](COCc3ccc(F)cc3)N3C(=O)O[C@@]1(C)[C@H]3[C@H]2C [Example 71]	0.02 µg/mL (≈ 0.0258 µM)	> 100 µg/mL	100 µg/mL (≈ 129 µM)	0.01 µg/mL (≈ 0.0129 µM)	0.05 µg/mL (≈ 0.0644 µM)	0.01 µg/mL (≈ 0.0129 µM)	0.1 µg/mL (≈ 0.129 µM)	0.2 µg/mL (≈ 0.258 µM)	0.1 µg/mL (≈ 0.129 µM)	0.39 µg/mL (≈ 0.503 µM)	12.5 µg/mL (≈ 16.1 µM)	> 100 µg/mL	0.1 µg/mL (≈ 0.129 µM)	100 µg/mL (≈ 129 µM)	0.01 µg/mL (≈ 0.0129 µM)	12.5 µg/mL (≈ 16.1 µM)	25 µg/mL (≈ 32.2 µM)	50 µg/mL (≈ 64.4 µM)	> 100 µg/mL	0.1 µg/mL (≈ 0.129 µM)	MIC [12]: 25 µg/mL (≈ 32.2 µM); MIC [13]: 0.1 µg/mL (≈ 0.129 µM); MIC [14]: 0.1 µg/mL (≈ 0.129 µM); MIC (ESCHERICHIA COLI JUHL): 25 µg/mL (≈ 32.2 µM); MIC [15]: 0.1 µg/mL (≈ 0.129 µM); MIC [16]: 0.78 µg/mL (≈ 1.01 µM); MIC [17]: 0.39 µg/mL (≈ 0.503 µM); MIC [18]: 50 µg/mL (≈ 64.4 µM); MIC [19]: 100 µg/mL (≈ 129 µM); MIC [20]: 12.5 µg/mL (≈ 16.1 µM); MIC (PSEUDOMONAS CEPACIA 296I): 25 µg/mL (≈ 32.2 µM); MIC [21]: 100 µg/mL (≈ 129 µM); MIC [22]: > 100 µg/mL
CC[C@H]1OC(=O)[C@H](C)C(=O)[C@H](C)[C@@H](O[C@@H]2O[C@H](C)C[C@H](N(C)C)[C@H]2O)[C@](C)(OC)C[C@@H](C)C2=N[C@H](COCc3ccccn3)CN3C(=O)O[C@@]1(C)[C@H]3[C@H]2C [Example 81]	0.05 µg/mL (≈ 0.0659 µM)	> 100 µg/mL	> 100 µg/mL	0.05 µg/mL (≈ 0.0659 µM)	0.05 µg/mL (≈ 0.0659 µM)	0.05 µg/mL (≈ 0.0659 µM)	0.39 µg/mL (≈ 0.514 µM)	3.1 µg/mL (≈ 4.08 µM)	0.39 µg/mL (≈ 0.514 µM)	1.56 µg/mL (≈ 2.06 µM)	> 100 µg/mL	> 100 µg/mL	0.39 µg/mL (≈ 0.514 µM)	> 100 µg/mL	0.05 µg/mL (≈ 0.0659 µM)	50 µg/mL (≈ 65.9 µM)	> 100 µg/mL	> 100 µg/mL	> 100 µg/mL	0.39 µg/mL (≈ 0.514 µM)	MIC [12]: > 100 µg/mL; MIC [13]: 0.39 µg/mL (≈ 0.514 µM); MIC [14]: 0.39 µg/mL (≈ 0.514 µM); MIC (ESCHERICHIA COLI JUHL): > 100 µg/mL; MIC [15]: 0.39 µg/mL (≈ 0.514 µM); MIC [16]: 3.1 µg/mL (≈ 4.08 µM); MIC [17]: 0.39 µg/mL (≈ 0.514 µM); MIC [18]: > 100 µg/mL; MIC [19]: > 100 µg/mL; MIC [20]: 100 µg/mL (≈ 132 µM); MIC (PSEUDOMONAS CEPACIA 296I): > 100 µg/mL; MIC [21]: > 100 µg/mL; MIC [22]: > 100 µg/mL
CC[C@H]1OC(=O)[C@H](C)C(=O)[C@H](C)[C@@H](O[C@@H]2O[C@H](C)C[C@H](N(C)C)[C@H]2O)[C@](C)(OC)C[C@@H](C)C2=NC3COCC3N3C(=O)O[C@@]1(C)[C@H]3[C@H]2C (stereo partly drawn) [Example 108]	0.02 µg/mL (≈ 0.0294 µM)	> 100 µg/mL	> 100 µg/mL	0.1 µg/mL (≈ 0.147 µM)	0.2 µg/mL (≈ 0.294 µM)	0.1 µg/mL (≈ 0.147 µM)	0.78 µg/mL (≈ 1.15 µM)	12.5 µg/mL (≈ 18.4 µM)	1.56 µg/mL (≈ 2.29 µM)	0.78 µg/mL (≈ 1.15 µM)	> 100 µg/mL	> 100 µg/mL	0.78 µg/mL (≈ 1.15 µM)	> 100 µg/mL	0.1 µg/mL (≈ 0.147 µM)	> 100 µg/mL	> 100 µg/mL	> 100 µg/mL	> 100 µg/mL	0.78 µg/mL (≈ 1.15 µM)	MIC [12]: > 100 µg/mL; MIC [13]: 0.39 µg/mL (≈ 0.574 µM); MIC [14]: 0.39 µg/mL (≈ 0.574 µM); MIC [15]: 0.78 µg/mL (≈ 1.15 µM); MIC [16]: 6.2 µg/mL (≈ 9.12 µM); MIC [17]: 0.39 µg/mL (≈ 0.574 µM); MIC [18]: > 100 µg/mL; MIC [19]: > 100 µg/mL; MIC [20]: 100 µg/mL (≈ 147 µM); MIC (PSEUDOMONAS CEPACIA 296I): > 100 µg/mL; MIC [21]: > 100 µg/mL; MIC [22]: > 100 µg/mL; MIC [23]: > 100 µg/mL
